Results reported in US20240246908A1 (ORION CORPORATION, priority 2021, published 2024).

System: YAP-TEAD
Assay: TEAD inhibition, Hippo Pathway TEAD Reporter MCF-7 luciferase assay
Format: cell-based
Details: Homo sapiens, MCF7, 24 h, Hippo Pathway TEAD Reporter MCF-7 cells, luciferase activity after 24 h; read-out: IC50 of the test compounds on YAP-TEAD inhibition (Group)
In short: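 IC50 derived from ONE-Glo luciferase luminescence after 24 h compound exposure (11 concentrations in quadruplicate, 0.1% DMSO control). Reporter: MCF-7 line expressing firefly luciferase under TEAD elements, constitutively activated by nuclear YAP1.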

| IC50 [nM] | Compound |
| --- | --- |
| < 50 | COc1ccc(Oc2cnc(C(F)(F)F)c(F)c2)cc1NC(=O)C1CCC(=O)N1C (stereo not shown) [Compound 399] |
| < 50 | COc1ccc(Oc2ccc(C(F)(F)F)c(F)n2)cc1NC(=O)C1CCC(=O)N1C (stereo not shown) [Compound 400, N-(5-((6-Fluoro-5-(trifluoromethyl)pyridin-2-yl)oxy)-2-methoxyphenyl)-1-methyl-5-oxopyrrolidine-2-carboxamide] |
| < 50 | COc1ccc(Oc2ccc(C(F)(F)F)c(F)n2)cc1NC(=O)[C@@H]1CCC(=O)N1C [Compound 401, (S)—N-(5-((6-Fluoro-5-(trifluoromethyl)pyridin-2-yl)oxy)-2-methoxyphenyl)-1-methyl-5-oxopyrrolidine-2-carboxamide] |
| < 50 | COc1ccc(Oc2ccc(C(F)(F)F)c(F)n2)cc1NC(=O)[C@H]1CCC(=O)N1C [Compound 402, (R)—N-(5-((6-Fluoro-5-(trifluoromethyl)pyridin-2-yl)oxy)-2-methoxyphenyl)-1-methyl-5-oxopyrrolidine-2-carboxamide] |
| < 50 | COc1ccc(Oc2ccc(C(F)(F)F)cn2)cc1NC(=O)[C@@H]1CCC(=O)N1C [Compound 403, (S)—N-(2-Methoxy-5-((5-(trifluoromethyl)pyridin-2-yl)oxy)phenyl)-1-methyl-5-oxopyrrolidine-2-carboxamide] |
| 50 to 300 | COc1ccc(/C=C/C2CCC(F)(F)CC2)cc1NC(=O)C1CNC(=O)N1 (stereo not shown) [Compound 404, (E)-N-(5-(2-(4,4-Difluorocyclohexyl)vinyl)-2-methoxyphenyl)-2-oxo-imidazolidine-4-carboxamide] |
| < 50 | CN1C(=O)CC[C@@H]1C(=O)Nc1cc(/C=C/C2CCC(F)(F)CC2)cc2c1OCC2 [Compound 405, (R,E)-N-(5-(2-(4,4-Difluorocyclohexyl)vinyl)-2,3-dihydrobenzofuran-7-yl)-1-methyl-5-oxopyrrolidine-2-carboxamide] |
| < 50 | CN1C(=O)CC[C@H]1C(=O)Nc1cc(/C=C/C2CCC(F)(F)CC2)cc2c1OCC2 [Compound 406, (S,E)-N-(5-(2-(4,4-Difluorocyclohexyl)vinyl)-2,3-dihydrobenzofuran-7-yl)-1-methyl-5-oxopyrrolidine-2-carboxamide] |
| < 50 | CN1C(=O)NC[C@H]1C(=O)Nc1cc(/C=C/C2CCC(F)(F)CC2)cc2c1OCC2 [Compound 407, (S,E)-N-(5-(2-(4,4-Difluorocyclohexyl)vinyl)-2,3-dihydrobenzofuran-7-yl)-3-methyl-2-oxoimidazolidine-4-carboxamide] |
| 50 to 300 | COc1ccc(/C=C/C2CCC(F)(F)CC2)cc1NC(=O)C1CN(C)C(=O)N1C (stereo not shown) [Compound 408, (E)-N-(5-(2-(4,4-Difluorocyclohexyl)vinyl)-2-methoxyphenyl)-1,3-dimethyl-2-oxoimidazolidine-4-carboxamide] |
| < 50 | CN1C(=O)NC[C@H]1C(=O)Nc1cc(/C=C/C2CCC(F)(F)CC2)cc2c1OCO2 [Compound 409] |
| 301 to 2000 | COc1cc(Oc2ccc(O)c(NC(=O)C3CCC(=O)N3C)c2)ccc1C(F)(F)F (stereo not shown) [Compound 410, N-(2-Hydroxy-5-(3-methoxy-4-(trifluoromethyl)phenoxy)phenyl)-1-methyl-5-oxopyrrolidine-2-carboxamide] |
| 301 to 2000 | COc1ccc(Oc2ccc(C(F)(F)F)cc2O)cc1NC(=O)C1CCC(=O)N1C (stereo not shown) [Compound 411, N-(5-(2-Hydroxy-4-(trifluoromethyl)phenoxy)-2-methoxyphenyl)-1-methyl-5-oxopyrrolidine-2-carboxamide] |
| 301 to 2000 | COc1ccc(Oc2ccc(C(F)(F)F)cc2)cc1NC(=O)C1CCN(C(C)=O)C1 (stereo not shown) [Compound 412, 1-Acetyl-N-(2-methoxy-5-(4-(trifluoromethyl)phenoxy)phenyl)-pyrrolidine-3-carboxamide] |
| 301 to 2000 | COc1ccc(Oc2cccc(F)c2)cc1NC(=O)C1CCN(C(C)=O)C1 (stereo not shown) [Compound 413, 1-Acetyl-N-(5-(3-fluorophenoxy)-2-methoxyphenyl)pyrrolidine-3-carboxamide] |
| 50 to 300 | COc1ccc(Oc2ccc(C(F)(F)F)cc2)cc1N(C)C(=O)[C@@H]1CCC(=O)N1C [Compound 417, (S)—N-(2-Methoxy-5-(4-(trifluoromethyl)phenoxy)phenyl)-N,1-dimethyl-5-oxopyrrolidine-2-carboxamide] |
